Patent publication US8889902B2, “Acetylsalicylic acid salts” (priority 2009, dated 2014)
Values joined by “and” are separate entries in the source; they are usually repeats but may differ in a detail not shown here. Equal entries are not always repeated. Marks after values point to notes of the source that are not given here.

Tests used:
tail bleeding = experiment: Tail bleeding time during thrombosis experiment; format: in vivo, rats; settings: for Tail bleeding time, %: control = 100
Protocol: Additionally during the thrombosis experiment rat tail bleeding time was measured. The tail was transected 5 mm from the tip with scalpel and the tail was immediately immersed into 37° C. warm isotonic saline until termination of bleeding was noted. Termination of bleeding was defined as the time of complete stop of bleeding with no recurrence of bleeding within the next 30 s.

[1] = tested on: adjuvant arthritis induced by Freund's adjuvant; experiment: Adjuvant arthritis: paw volume and ankle joint; format: in vivo, Wistar rats; settings: for Prevention %, paw volume Day 14 / Prevention %, paw volume Day 28: vs AdA
Source text: Our experiments were scheduled to test the influence of MASA on the progress of adjuvant arthritis in comparison with MD and ASA. […] Each standard cage housed 7 rats with unlimited access to drinking water and granulated standard feed. […] All efforts were made to minimize animal suffering and to reduce the number of animals used. A modified standard procedure for inducting and evaluating the progress of chronic adjuvant arthritis was used (Bellavite P, Ortolani R, Conforti A, Immunology and Homeopathy. 3. Experimental Studies on Animal Models, Advance Access Publication 2.05, 2006, 171-186). […] The solutions of test substances were prepared ex tempore. […] Test solutions were introduced to animal p.o. by catheter into the stomach. […] The effects of test substances were evaluated using the following criteria: The oedema, i.e. the volume of hind paw was measured by oncometer. The percentage of prevention (inhibition of oedema) was calculated according to formula: P(%)=(Vc−Vt)/Vc×100, where Vc—paw volume in control group Vt—paw volume in test group P—Prevention in % (inhibition of oedema).

CRP = CRP levels in blood, carrageneen inflammation model; format: in vivo, rats; settings: for CRP: 5 h after carrageneen; for CRP increase %: carrageneen control = 100
Protocol: To evaluate the intensity of the inflammation process the CRP levels were determined by standard method on analyzer ? INTEGRA 400+ ? at the end of experiment (5 hours after injection of carrageneen).

platelet aggregation = experiment: Platelet aggregation in vitro, whole blood impedance aggregometry (Multiplate); format: cell-based, healthy donor
Protocol: Platelet aggregation was studied using whole blood impedance aggregometry on Multiplate (Multiple Platelet Function Analyzer, Dynabyte Medical, Germany) (Toth O et al, Thromb Haemost 2006; 96:781-788. […] Blood samples for in vitro experiment were collected from healthy donor B. […] In the ex vivo experiment blood was collected into plastic tubes covered with hirudin (Dynabyte Medical, Germany) from narcotized rats that were treated for 3 previous days with test substances p.o. The measurements were performed according to modified Dynabyte Medical protocol. […] After 5 min incubation and stirring at 37° C., measurements were initiated by adding of the appropriate agonist solution (sourced from Dynabyte Medical, Germany): 1) adenosine diphosphate (ADP)-ADP-Test. ADP stimulates platelet activation by the ADP receptors (P2Y 12 and other). […] 3) ADP HS test (prostaglandin E1 in combination with ADP). […] Aggregation curves were recorded for 6 min. and analyzed using Dynabyte Medical software. We calculated the following parameters of platelet aggregation: […] It is affected by the total height of the aggregation curve as well as by its slope and is best suited to express the overall platelet activity.

rat ear skin temperature = experiment: Ear skin temperature rise caused by NA, p.o. administration; format: in vivo, Wistar rats; settings: for Max incr. %: NA alone = 100
Protocol: Male Wistar rats (280-330 g) were used. Animals were held in groups of 6 in climatized rooms at 22±1° C., relative humidity 60±5%, and 12/12-hour light/dark cycle with free access to drinking water and feed (R3—Lactamin AB, Sweden). For registration of changes in skin temperature of intact rats contactless temperature recording method was used (Papaliodis D et al, Br J Pharmacol 2008; 153:1382-1387). Temperature measurements were performed with a hand-held infrared thermometer (Model Proscan 510, TFA-Dostman). Animals were habituated to handling and to the infrared probe for 3 days before use. Temperature readings from the dorsal side of each ear were recorded without anaesthesia at beginning and during experiment. The ear temperature was measured every 5 min. for a period of up to 60 min. The animals were returned to their cages between measurements. NA, MD and MASA were dissolved in saline and pH was corrected immediately before usage. LA (MK 0524, Cayman Chemicals) was first dissolved in DMSO and then freshly diluted with 0.9% NaCl, on each day of the experiment. The rate of NA and LA combination was based on Summary of Product Characteristics for Tredaptive™ (nicotinic acid/laropiprant) 1000 mg/20 mg modified-release tablets.
9.2.3. Investigation of the Effect of MASA/NA and MD/NA Combination on Skin Temperature at Simultaneous or 45 Min Advance p.o. Administration

[2] = tested on: WBC, CRP, CIC in adjuvant arthritis; experiment: Adjuvant arthritis: WBC, CRP and CIC in blood; format: in vivo, Wistar rats
Protocol: Our experiments were scheduled to test the influence of MASA on the progress of adjuvant arthritis in comparison with MD and ASA. Experiments were conducted on Wistar rats with starting body mass of 153-185 g. Rats were kept in climatized rooms at 22±1° C., relative humidity 60±5% and 12/12-hour light/darkness cycle. Each standard cage housed 7 rats with unlimited access to drinking water and granulated standard feed. All experiments were carried out in accordance with the European Community Council's Directive of 24 Nov. 1986 (86/609/EEC) relative to experimental animal care. All efforts were made to minimize animal suffering and to reduce the number of animals used.
A modified standard procedure for inducting and evaluating the progress of chronic adjuvant arthritis was used (Bellavite P, Ortolani R, Conforti A, Immunology and Homeopathy. 3. Experimental Studies on Animal Models, Advance Access Publication 2.05, 2006, 171-186). Rats were injected into the hind foot pad 0.1 ml and intraperitonealy with 0.05 ml of complete Freund's adjuvant solution.
Hematological indices were determined by standard methods on hematological analyzer ? PENTRA 120 ? , CRP was determined on ? INTEGRA 400+ ? . Levels of CIC in blood serum were determined spectrometrically, using […].

[3] = 10 mg/kg/d p.o., repeated, 3 days

CC(=O)Oc1ccccc1C(=O)[O-].C[N+](C)(C)NCCC(=O)O [MASA, 3-(trimethylammonioamino)propanoate Acetylsalicylic Acid Addition Salt]
Tail bleeding time (tail bleeding; 10 mg/kg p.o., single dose): 12.1 ± 2.20 min
Tail bleeding time, % (tail bleeding; 10 mg/kg p.o., single dose): 136%
Tail bleeding time (tail bleeding; [3]): 13.1 ± 2.63 min
Tail bleeding time, % (tail bleeding; [3]): 152%
Dimensions of ankle joint on Day 14 ([1]; 25 mg/kg daily p.o.): 7.0 ± 0.14 mm
Dimensions of ankle joint on Day 28 ([1]; 25 mg/kg daily p.o.): 6.7 ± 0.15 mm
Paw volume on Day 14 ([1]; 25 mg/kg daily p.o.): 2.20 ± 0.21 mL
Paw volume on Day 28 ([1]; 25 mg/kg daily p.o.): 1.32 ± 0.12^#&&$ ml
Prevention %, paw volume Day 14 ([1]; 25 mg/kg daily p.o.): 9%
Prevention %, paw volume Day 28 ([1]; 25 mg/kg daily p.o.): 41%
Dimensions of ankle joint on Day 14 ([1]; 100 mg/kg daily p.o.): 7.0 ± 0.13 mm
Dimensions of ankle joint on Day 28 ([1]; 100 mg/kg daily p.o.): 6.6 ± 0.16^#@$ mm
Paw volume on Day 14 ([1]; 100 mg/kg daily p.o.): 2.07 ± 0.17^& ml
Paw volume on Day 28 ([1]; 100 mg/kg daily p.o.): 1.22 ± 0.08^#&&&@$ ml
Prevention %, paw volume Day 14 ([1]; 100 mg/kg daily p.o.): 15%
Prevention %, paw volume Day 28 ([1]; 100 mg/kg daily p.o.): 45%
Dimensions of ankle joint on Day 14 ([1]; 200 mg/kg daily p.o.): 6.8 ± 0.10^#& mm
Dimensions of ankle joint on Day 28 ([1]; 200 mg/kg daily p.o.): 6.9 ± 0.11 mm
Paw volume on Day 14 ([1]; 200 mg/kg daily p.o.): 2.13 ± 0.11^& ml
Paw volume on Day 28 ([1]; 200 mg/kg daily p.o.): 1.7 ± 0.09^#&@ ml
Prevention %, paw volume Day 14 ([1]; 200 mg/kg daily p.o.): 12%
Prevention %, paw volume Day 28 ([1]; 200 mg/kg daily p.o.): 24%
CRP (CRP; 150 mg/kg): 0.19 ± 0.009^#$ mg/l
CRP increase % (CRP; 150 mg/kg): 33%
CRP (CRP; 300 mg/kg): 0.21 ± 0.014 mg/L
CRP increase % (CRP; 300 mg/kg): 67%
AUC (platelet aggregation; AA induced, 10^−4): 298 ± 25.3^3#&&$ AU*min and 298 ± 25.3^3aa& AU*min
Amax (platelet aggregation; AA induced, 10^−4): 66.1 ± 6.8^3#&&$ AU and 66.1 ± 6.8^3aa& AU
AUC (platelet aggregation; AA induced, 10^−5): 832 ± 54.1^1 AU*min
Amax (platelet aggregation; AA induced, 10^−5): 148.4 ± 5.7^1 AU
AUC (platelet aggregation; ADP induced, 10^−4): 798 ± 38.9^1 AU*min
Amax (platelet aggregation; ADP induced, 10^−4): 140.5 ± 7.2^1 AU
AUC (platelet aggregation; ADP induced, 10^−5): 828 ± 63.5 AU*min
Amax (platelet aggregation; ADP induced, 10^−5): 153.5 ± 8.8 AU
AUC (platelet aggregation; PGE1 + ADP induced, 10^−4): 533 ± 20.3^3$&&& AU*min
Amax (platelet aggregation; PGE1 + ADP induced, 10^−4): 87.7 ± 4.6^3$&&& AU
AUC (platelet aggregation; PGE1 + ADP induced, 10^−5): 595 ± 45.3^1 AU*min
Amax (platelet aggregation; PGE1 + ADP induced, 10^−5): 99.3 ± 4.8^2 AU
Temp. 15 min (rat ear skin temperature; MASA 150 mg/kg p.o. alone): 29.9 ± 0.33^$$ ° C.
Temp. 30 min (rat ear skin temperature; MASA 150 mg/kg p.o. alone): 29.5 ± 0.35^$$$ ° C.
Temp. 45 min (rat ear skin temperature; MASA 150 mg/kg p.o. alone): 29.6 ± 0.39^$$ ° C.
Max incr. % (rat ear skin temperature; MASA 150 mg/kg p.o. alone): 6%
CIC units, Day 14 ([2]; 25 mg/kg daily p.o.): 12.6 ± 0.68 units
CIC units, Day 28 ([2]; 25 mg/kg daily p.o.): 11.8 ± 1.53 units
CRP, Day 14 ([2]; 25 mg/kg daily p.o.): 0.29 ± 0.02 mg/L
CRP, Day 28 ([2]; 25 mg/kg daily p.o.): 0.15 ± 0.02^##& mg/l
Leucocytes (WBC), Day 14 ([2]; 25 mg/kg daily p.o.): 14.72 ± 1.63^# 10^3/mm^3
Leucocytes (WBC), Day 28 ([2]; 25 mg/kg daily p.o.): 16.77 ± 1.78 10^3/mm^3
CIC units, Day 14 ([2]; 100 mg/kg daily p.o.): 20.8 ± 2.99 units
CIC units, Day 28 ([2]; 100 mg/kg daily p.o.): 5.8 ± 0.74^##&@@$ units
CRP, Day 14 ([2]; 100 mg/kg daily p.o.): 0.29 ± 0.02 mg/L
CRP, Day 28 ([2]; 100 mg/kg daily p.o.): 0.16 ± 0.01^##& mg/l
Leucocytes (WBC), Day 14 ([2]; 100 mg/kg daily p.o.): 14.13 ± 0.53^## 10^3/mm^3
Leucocytes (WBC), Day 28 ([2]; 100 mg/kg daily p.o.): 15.52 ± 0.57^## 10^3/mm^3
CIC units, Day 14 ([2]; 200 mg/kg daily p.o.): 21.6 ± 3.26 units
CIC units, Day 28 ([2]; 200 mg/kg daily p.o.): 6.2 ± 1.02^##@ units
CRP, Day 14 ([2]; 200 mg/kg daily p.o.): 0.25 ± 0.01*^#@ mg/l
CRP, Day 28 ([2]; 200 mg/kg daily p.o.): 0.19 ± 0.01 mg/L
Leucocytes (WBC), Day 14 ([2]; 200 mg/kg daily p.o.): 15.42 ± 1.40^# 10^3/mm^3
Leucocytes (WBC), Day 28 ([2]; 200 mg/kg daily p.o.): 14.35 ± 0.84^## 10^3/mm^3

O=C(O)c1cccnc1 [NA, nicotinic acid]
Tail bleeding time (tail bleeding; 25 mg/kg p.o., single dose): 11.5 ± 1.39 min
Tail bleeding time, % (tail bleeding; 25 mg/kg p.o., single dose): 129%
AUC (platelet aggregation; AA induced, 10^−4): 1010 ± 41.7 AU*min
Amax (platelet aggregation; AA induced, 10^−4): 161.1 ± 9.4 AU
AUC (platelet aggregation; ADP induced, 10^−4): 859 ± 62.5 AU*min
Amax (platelet aggregation; ADP induced, 10^−4): 148.0 ± 5.2^1 AU
AUC (platelet aggregation; PGE1 + ADP induced, 10^−4): 862 ± 51.9 AU*min
Amax (platelet aggregation; PGE1 + ADP induced, 10^−4): 146.7 ± 8.6 AU
Temp. 15 min (rat ear skin temperature; NA 40 mg/kg p.o.): 32.3 ± 0.46 °C
Temp. 30 min (rat ear skin temperature; NA 40 mg/kg p.o.): 33.1 ± 0.41 °C
Temp. 45 min (rat ear skin temperature; NA 40 mg/kg p.o.): 32.4 ± 0.48 °C
Max incr. % (rat ear skin temperature; NA 40 mg/kg p.o.): 100%
